pIC50: −log10 of the molar value.
Columns and labels:
AhR = molecular target: T1, AhR (Homo sapiens, UniProt P35869); assay: Inhibition of AhR-mediated gene transcription (HEK-XRE 11.1 luciferase reporter, MeBIO induction); format: cell-based; conditions: HEK-XRE 11.1 cells, MeBIO 0.1 nM, luminescence after 24 hours; Table 1
T1 construct: One of the resultant clones was named HEK-XRE 11.1, and used in the reporter gene assays; endogenous in cells; host or cells: HEK-XRE 11.1 (HEK cells stably carrying the AhR-responsive luciferase reporter X4-4.27 and phRL-CMV)
T1 sequence (P35869 11-848): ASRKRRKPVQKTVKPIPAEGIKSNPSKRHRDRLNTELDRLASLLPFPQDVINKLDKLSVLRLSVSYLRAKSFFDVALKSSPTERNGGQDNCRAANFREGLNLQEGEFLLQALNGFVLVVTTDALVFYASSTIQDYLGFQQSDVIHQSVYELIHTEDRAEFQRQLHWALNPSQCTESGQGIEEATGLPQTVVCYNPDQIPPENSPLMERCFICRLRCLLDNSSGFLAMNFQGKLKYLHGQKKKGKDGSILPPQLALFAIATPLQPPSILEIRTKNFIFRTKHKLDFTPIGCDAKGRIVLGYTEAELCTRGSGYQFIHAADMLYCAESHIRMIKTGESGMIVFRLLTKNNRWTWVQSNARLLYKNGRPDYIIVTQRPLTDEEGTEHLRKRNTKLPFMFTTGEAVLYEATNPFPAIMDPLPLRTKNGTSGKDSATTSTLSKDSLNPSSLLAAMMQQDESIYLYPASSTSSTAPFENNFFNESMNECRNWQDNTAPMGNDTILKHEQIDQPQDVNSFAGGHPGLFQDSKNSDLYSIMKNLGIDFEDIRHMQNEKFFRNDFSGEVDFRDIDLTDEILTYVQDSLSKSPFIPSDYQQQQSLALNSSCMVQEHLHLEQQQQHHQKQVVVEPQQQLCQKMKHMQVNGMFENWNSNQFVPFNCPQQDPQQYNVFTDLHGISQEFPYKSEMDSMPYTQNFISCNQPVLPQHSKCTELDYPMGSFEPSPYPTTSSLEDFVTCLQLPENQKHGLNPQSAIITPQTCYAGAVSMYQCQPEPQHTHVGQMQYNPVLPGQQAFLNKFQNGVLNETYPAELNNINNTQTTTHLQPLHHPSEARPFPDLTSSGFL
Procedure: HEK cells line was transfected with an AhR-responsive firefly luciferase reporter gene X4-4.27 and the stable transfectants generated were again transfected with phRL-CMV (a Renilla luciferase expression vector; Promega) along with pBAsi-hU6 Pur DNA (a plasmid carrying the puromycin-resistant gene; TaKaRa, Shiga, Japan), and maintained in the presence of both hygromycin B and puromycin (2 mg/mL). One of the resultant clones was named HEK-XRE 11.1, and used in the reporter gene assays.
HEK-XRE 11.1 cells were plated in 384-well plates at a density of 25,000 cells in 50 uL volume per well. The induction of ARh pathway was done by addition of MeBIO at 0.1 nM concentration. ARh antagonist compounds were then added to seeded cells in serial dilutions (8 dilutions, 1:[…] down to 5 nM) in duplicate wells. Renilla expression was not used as internal control. On each plate, Compound 1001 and SR1 were added as dose control (8 dilutions, 1:3, 5 mM down to 2.5 nM for SR1 and 2 mM down to 1 nM for compound 1001). Luminescence activity was evaluated after 24 hours culture using Lumi-384-CellTiterGlo-Corning protocol. Dose-response curves were generated using nonlinear regression in Excel.

[1] = tested on: Human CD34+ cord blood (CB) cells; assay: CD34+ activity assessment (7-day expansion of pre-expanded CD34+ cells, flow cytometry); format: cell-based; conditions: concentration at which compound/vehicle ratio of CD34+ cell number is >= 1.5; 7 days, with 35 nM UM0128171; Table 1
Procedure: Human CD34+ cord blood (CB) cells were isolated from fresh units using RosetteSep™ 0034 pre-enrichment cocktail followed by CD34 positive selection using EasySep Kit™ (StemCell Technologies). The cells were then pre-expanded in bulk, by culturing at 37° C. for 6 days in HSC expansion media consisting of StemSpan ACF (StemCell Technologies) supplemented with 100 ng/mL Stem Cell Factor (SCF, Shenandoah), 100 ng/mL FMS-like Tyrosine Kinase 3 Ligand (FLT3L, Shenandoah), 50 ng/mL Thrombopoietin (TPO, Shenandoah), 2 mM GlutaMAX™ (Invitrogen), 10 μg/mL low density lipoproteins (LDL, StemCell Technologies), 10 μg/mL Ciprofloxacin and 35 nM UM0128171. […] Following the pre-expansion, cells were harvested, aliquoted and frozen until use.
For each activity assessment, CD34+ pre-expanded cells (approximately 2000 per well in a 384-well plate) were cultured in HSC expansion media, in the presence of 35 nM UM0128171. Compounds were serially diluted (1/2) in DMSO (10 dilutions per compound) and added to the cells in order to achieve a 1/1000 final dilution. StemRegenin1 (SR1) and/or Compound 1001 were included in all experiments as controls to monitor assay performance. The plate was incubated at 37° C. for 7 days in static conditions (i.e. no shaking and no addition of media). Flow cytometry analysis was performed at the end of the 7-day expansion. Cells were stained with PE-labeled anti-human CD45RA (BD Biosciences) and APC-labeled anti-human CD34 (BD Biosciences) and analyzed using Intellicyt IQue cytometer equipped with ForeCyt software. Gates were drawn around the populations of interest to obtain cell numbers and relative proportions. The EC1.5 value, which is the concentration at which the compound/vehicle ratio is greater or equal to 1.5, was calculated by plotting the CD34+ cell number against concentrations (log-scale) in a 4-PL curve and fitting the curve using IDBS XLfit (set model 251) in Microsoft Excel.

## Nc1c(C(=O)Nc2cccc3cnccc23)sc2ncc(C(F)(F)F)cc12 [Compound 1039]
AhR
  pIC50: 6.30 to 7.30
[1]
  EC1.5: >5000 nM

## Nc1c(C(=O)Nc2cccc3ncccc23)sc2ncc(C(F)(F)F)cc12 [Compound 1040]
AhR
  pIC50: 6.30 to 7.30
[1]
  EC1.5: >5000 nM

## Nc1c(C(=O)Nc2ccc3ncccc3c2)sc2ncc(C(F)(F)F)cc12 [Compound 1041]
AhR
  pIC50: 6.30 to 7.30
[1]
  EC1.5: 1000 to 5000 nM

## Nc1c(C(=O)Nc2cnc3ccccc3c2)sc2ncc(C(F)(F)F)cc12 [Compound 1042]
AhR
  pIC50: < 6.30
[1]
  EC1.5: 1000 to 5000 nM

## Nc1c(C(=O)Nc2ccnc3ccccc23)sc2ncc(C(F)(F)F)cc12 [Compound 1043]
AhR
  pIC50: < 6.30
[1]
  EC1.5: >5000 nM

## CCOC(=O)c1cnc2sc(C(=O)Nc3ccccc3)c(N)c2c1 [Compound 1044]
AhR
  pIC50: 6.30 to 7.30
[1]
  EC1.5: >5000 nM

## Nc1c(C(=O)Nc2ccc(Cl)cc2)sc2ncc(C(F)(F)F)cc12 [Compound 1045]
AhR
  pIC50: > 7.30
[1]
  EC1.5: <100 nM

## COCCc1ccc(NC(=O)c2sc3ncc(C(F)(F)F)cc3c2N)cc1 [Compound 1046]
AhR
  pIC50: 6.30 to 7.30
[1]
  EC1.5: >5000 nM

## Cc1ccc(NC(=O)c2sc3ncc(C(F)(F)F)cc3c2N)cc1 [Compound 1047]
AhR
  pIC50: > 7.30
[1]
  EC1.5: 100 to 1000 nM

## COc1ccc(NC(=O)c2sc3ncc(C(F)(F)F)cc3c2N)cc1 [Compound 1048]
AhR
  pIC50: > 7.30
[1]
  EC1.5: <100 nM

## Nc1c(C(=O)Nc2ccc(Cl)cc2)sc2cnc(C(F)(F)F)cc12 [Compound 1051]
AhR
  pIC50: 6.30 to 7.30
[1]
  EC1.5: 1000 to 5000 nM

## Cc1ccc(NC(=O)c2sc3cnc(C(F)(F)F)cc3c2N)cc1 [Compound 1052]
AhR
  pIC50: 6.30 to 7.30
[1]
  EC1.5: 1000 to 5000 nM

## Nc1c(C(=O)Nc2ccc(-c3ccncc3)cc2)sc2ncc(C(F)(F)F)cc12 [Compound 1056]
AhR
  pIC50: 6.30 to 7.30
[1]
  EC1.5: >5000 nM

## Nc1c(C(=O)Nc2cccc(-c3cccnc3)c2)sc2ncc(C(F)(F)F)cc12 [Compound 1057]
AhR
  pIC50: > 7.30
[1]
  EC1.5: 1000 to 5000 nM

## Nc1c(C(=O)Nc2cccc(-c3ccncc3)c2)sc2ncc(C(F)(F)F)cc12 [Compound 1058]
AhR
  pIC50: > 7.30
[1]
  EC1.5: 100 to 1000 nM

## Nc1c(C(=O)Nc2cccc(-c3ccccc3)c2)sc2ncc(C(F)(F)F)cc12 [Compound 1059]
AhR
  pIC50: 6.30 to 7.30
[1]
  EC1.5: 1000 to 5000 nM

## Nc1c(C(=O)Nc2ccc(C(F)(F)F)cc2)sc2ncc(C(F)(F)F)cc12 [Compound 1061]
AhR
  pIC50: > 7.30
[1]
  EC1.5: <100 nM

## Cc1cnc2sc(C(=O)Nc3ccc(Br)cc3)c(N)c2c1 [Compound 1062]
AhR
  pIC50: > 7.30
[1]
  EC1.5: <100 nM

## Cc1cnc2sc(C(=O)Nc3ccncc3)c(N)c2c1 [Compound 1063]
AhR
  pIC50: 6.30 to 7.30
[1]
  EC1.5: >5000 nM

## Nc1c(C(=O)Nc2ccc(Br)cc2)sc2ccc(C(F)(F)F)cc12 [Compound 1064]
AhR
  pIC50: 6.30 to 7.30
[1]
  EC1.5: 100 to 1000 nM

## Cc1ccc(NC(=O)c2sc3ccc(C(F)(F)F)cc3c2N)cc1 [Compound 1065]
AhR
  pIC50: 6.30 to 7.30
[1]
  EC1.5: 100 to 1000 nM

## Nc1c(C(=O)Nc2ccc(Cl)cc2)sc2ccc(C(F)(F)F)cc12 [Compound 1066]
AhR
  pIC50: > 7.30
[1]
  EC1.5: 100 to 1000 nM

## Nc1c(C(=O)Nc2cccnc2)sc2ccc(C(F)(F)F)cc12 [Compound 1067]
AhR
  pIC50: > 7.30
[1]
  EC1.5: 1000 to 5000 nM

## Cc1cnc2sc(C(=O)Nc3ccc(Cl)cc3)c(N)c2c1 [Compound 1068]
AhR
  pIC50: > 7.30
[1]
  EC1.5: <100 nM

## Cc1ccc(NC(=O)c2sc3ncc(C)cc3c2N)cc1 [Compound 1069]
AhR
  pIC50: > 7.30
[1]
  EC1.5: 100 to 1000 nM

## Cc1ccc(NC(=O)c2sc3ncc(C(F)(F)F)cc3c2N)cn1 [Compound 1070]
AhR
  pIC50: 6.30 to 7.30
[1]
  EC1.5: >5000 nM

## COc1ccc(NC(=O)c2sc3ncc(C(F)(F)F)cc3c2N)cn1 [Compound 1071]
AhR
  pIC50: > 7.30
[1]
  EC1.5: 100 to 1000 nM

## Cc1ccc2sc(C(=O)Nc3ccccc3)c(N)c2n1 [Compound 1072]
AhR
  pIC50: 6.30 to 7.30
[1]
  EC1.5: >5000 nM

## Cc1ccc2sc(C(=O)Nc3ccc(Cl)cc3)c(N)c2n1 [Compound 1073]
AhR
  pIC50: 6.30 to 7.30
[1]
  EC1.5: >5000 nM

## Nc1c(C(=O)Nc2ccc(F)c(Cl)c2)sc2ncc(C(F)(F)F)cc12 [Compound 1074]
AhR
  pIC50: > 7.30
[1]
  EC1.5: 100 to 1000 nM

## Nc1c(C(=O)Nc2ccc(F)c(F)c2)sc2ncc(C(F)(F)F)cc12 [Compound 1075]
AhR
  pIC50: > 7.30
[1]
  EC1.5: 100 to 1000 nM

## Cc1cc(NC(=O)c2sc3ncc(C(F)(F)F)cc3c2N)ccc1F [Compound 1076]
AhR
  pIC50: 6.30 to 7.30
[1]
  EC1.5: 100 to 1000 nM

## Nc1c(C(=O)Nc2cccc(F)c2)sc2ncc(C(F)(F)F)cc12 [Compound 1077]
AhR
  pIC50: > 7.30
[1]
  EC1.5: 100 to 1000 nM

## Cc1ccc(NC(=O)c2sc3ncc(C(F)(F)F)cc3c2N)cc1F [Compound 1078]
AhR
  pIC50: 6.30 to 7.30
[1]
  EC1.5: 1000 to 5000 nM

## Nc1c(C(=O)Nc2cc(F)cc(F)c2)sc2ncc(C(F)(F)F)cc12 [Compound 1079]
AhR
  pIC50: 6.30 to 7.30
[1]
  EC1.5: 1000 to 5000 nM

## COc1cccc(NC(=O)c2sc3cnc(C(F)(F)F)cc3c2N)c1 [Compound 1080]
AhR
  pIC50: > 7.30
[1]
  EC1.5: 100 to 1000 nM

## COc1cccc(NC(=O)c2sc3nc4c(cc3c2N)CCC4)c1 [Compound 1081]
AhR
  pIC50: > 7.30
[1]
  EC1.5: <100 nM

## Nc1c(C(=O)Nc2ccc(Cl)cc2)sc2nc3c(cc12)CCC3 [Compound 1082]
AhR
  pIC50: > 7.30
[1]
  EC1.5: <100 nM

## COc1ccc(NC(=O)c2sc3ccc(C(F)(F)F)cc3c2N)cc1 [Compound 1083]
AhR
  pIC50: 6.30 to 7.30
[1]
  EC1.5: <100 nM

## Nc1c(C(=O)Nc2ccc(OC(F)(F)F)cc2)sc2ncc(C(F)(F)F)cc12 [Compound 1084]
AhR
  pIC50: > 7.30
[1]
  EC1.5: <100 nM

## COc1cccc(NC(=O)c2sc3ncc(C(F)(F)F)cc3c2N)c1 [Compound 1085]
AhR
  pIC50: 6.30 to 7.30
[1]
  EC1.5: 100 to 1000 nM

## Nc1c(C(=O)Nc2ccc(OC(F)F)cc2)sc2ncc(C(F)(F)F)cc12 [Compound 1086]
AhR
  pIC50: > 7.30
[1]
  EC1.5: 100 to 1000 nM

## COc1ccc(NC(=O)c2sc3ncc(C(F)(F)F)cc3c2N)cc1Cl [Compound 1087]
AhR
  pIC50: > 7.30
[1]
  EC1.5: <100 nM

## Nc1c(C(=O)Nc2ccc(F)cc2)sc2cnc(C(F)(F)F)cc12 [Compound 1088]
AhR
  pIC50: > 7.30
[1]
  EC1.5: >5000 nM

Reference: patent US11696928B2, “Compounds and use thereof in the expansion of stem cells and/or progenitor cells” (UNIVERSITE DE MONTREAL, priority 2017, dated 2023)
